Measured values taken from PMC10364322, “Evaluation of chronic drug-induced electrophysiological and cytotoxic effects using human-induced pluripotent stem cell-derived cardiomyocytes (hiPSC-CMs)” (Frontiers in Pharmacology, 2023).
Read-outs that look alike come from different tables or passages of the source.

Legend:
[1] = system: hiPSC-CMs (iCell-Cardiomyocytes^2)
Procedure: (§1) Cells were seeded according to the instructions of the cell provider, in fibronectin-coated 48-well MEA plates (Axion Cytoview Plates, M768-tMEA-48B) at a density suited to form a monolayer (i.e., 50 K/well) and maintained in culture in a stage incubator (37°C, 5% CO2).
(§2) At least 4 h before the beginning of the baseline measurements, a full medium exchange was performed (to a final volume of 400 µL per well). Neat compounds were dissolved in 100% DMSO at a stock concentration 1000-fold the highest target concentration. […] Afterwards, these stock solutions were diluted with Maintenance medium (CDi), to 10-fold the intended concentration. The final DMSO concentration in test solutions and vehicle control was 0.1%.
(§3) Spontaneous electrical activity was recorded in hiPSC-CMs monolayers as field potentials using the Maestro Pro MEA instrument (Axion Biosystems, Atlanta, GA, United States), which allows the maintenance of accurate temperature and CO2 levels (37°C, 5% CO2). After the plate was placed in the Maestro Pro and allowed to equilibrate for about 10 min, baseline acquisition of field potential and impedance signals was initiated and lasted for 5 min each. […] As impedance measures resistance of an applied alternating current through the hiPSC-CMs monolayer, a reduction in the attachment of hiPSC-CMs to the bottom of the well due to cell death or changes in the monolayer morphology, causes a drop in the impedance signal.
The potential presence of various arrhythmic events was evaluated and noted during the data analysis.
(§4) After the acquisition of all timepoint measurements, raw data were loaded into the data analysis software Axion Cardiac Analysis Tool (V.3.2.3). […] A.csv file containing information on the FP parameters per well, per time point, was then generated and used as input to the in-house data management system (SPEcII v.3.4, Unlimit-IT, Geel, Belgium), where descriptive statistics were calculated. Summary values at different time points after compound addition are expressed as percent change from baseline and shown as mean ± standard deviation (SD).
(§5) The nonparametric Wilcoxon-Mann Whitney Test was used to compare the percent change from the baseline (Δ%) value between the group treated with the compound at a given concentration and the group treated with the DMSO at each matching time points. A two-sided test at 5% significance level was considered. […] To assess the physiological relevance of changes, a tolerance interval of DMSO experiments was calculated at each time point, for each parameter. […] TIs indicate an interval where, with a certain confidence level (1- α = 0.95), a specified proportion (p = 0.80) of percent change for DMSO data falls. The lower and upper limits based on the TI values were used as cut-offs for the interpretation of the changes. For the cytotoxicity assays, measurements of fluorescence (after background fluorescence subtraction) from wells treated with the compounds were normalized by the average value of vehicle experiments (DMSO 0.1%) to obtain a DMSO-corrected, delta/delta percent change. Experiments from each condition, as delta/delta percent, were averaged and expressed as mean ± SD. Statistical analysis was performed using a non-parametric test (Kruskal-Wallis) and each treatment condition was compared to the relative DMSO 0.1%. Differences were considered statistically significant when the p-value was smaller than 0.05.

[2] = system: hiPSC-CMs (iCell-Cardiomyocytes^2); test: MEA impedance (cytotoxicity readout) in hiPSC-CMs
Procedure: as §1, §2, §3, §4, §5

[3] = free therapeutic Cmax in humans; ref FDA-approved drug packages, PharmaPendium; cited from earlier work

With `CC1(C)S[C@@H]2[C@H](NC(=O)[C@H](N)c3ccc(O)cc3)C(=O)N2[C@H]1C(=O)O` [Amoxicillin] the “BR (beating rate), % change from baseline” value (“BR (beating rate), % change” below) ([1]; 1 µM, 2h) was 8±1%, the “FPD (field-potential duration), % change from baseline” value ([1]; 1 µM, 2h) was -1±2.2% and the “FPDc (field-potential duration corrected by beat-rate), % change from baseline” value (“FPDc … % change from baseline” below) ([1]; 1 µM, 2h) was 1.6±2.2%. The “BR (beating rate), % change” value ([1]; 1 µM, 24h) was 16±2%, the “FPD (field-potential duration), % change from baseline” value ([1]; 1 µM, 24h) was -2.8±1.5% and the “FPDc … % change from baseline” value ([1]; 1 µM, 24h) was 2.1±1.1%. For the same molecule, the “BR (beating rate), % change” value ([1]; 1 µM, 48h) was 3±2%, the “FPD (field-potential duration), % change from baseline” value ([1]; 1 µM, 48h) was 4.3±3% and the “FPDc … % change from baseline” value ([1]; 1 µM, 48h) was 5.3±2.8%. For the same molecule, the “BR (beating rate), % change” value ([1]; 1 µM, 72h) was -2±3%, the “FPD (field-potential duration), % change from baseline” value ([1]; 1 µM, 72h) was 8.1±4.8% and the “FPDc … % change from baseline” value ([1]; 1 µM, 72h) was 7±3.6%. The “BR (beating rate), % change” value ([1]; 1 µM, 96h) was -21±2 %, the “FPD (field-potential duration), % change from baseline” value ([1]; 1 µM, 96h) was 16.9±3% and the “FPDc … % change from baseline” value ([1]; 1 µM, 96h) was 8.1±2%. The “BR (beating rate), % change” value ([1]; 3 µM, 72h) was -4±3%, the “FPD (field-potential duration), % change from baseline” value ([1]; 3 µM, 72h) was 9.6±3.7% and the “FPDc … % change from baseline” value ([1]; 3 µM, 72h) was 8.4±2.9%. The “BR (beating rate), % change” value ([1]; 3 µM, 96h) was -20±4 %, the “FPD (field-potential duration), % change from baseline” value ([1]; 3 µM, 96h) was 18.2±7.7% and the “FPDc … % change from baseline” value ([1]; 3 µM, 96h) was 9.6±6.7%. The “BR (beating rate), % change” value ([1]; 3 µM, 2h) was 8±1%, the “FPD (field-potential duration), % change from baseline” value ([1]; 3 µM, 2h) was 0.7±2.8% and the “FPDc … % change from baseline” value ([1]; 3 µM, 2h) was 3.1±2.9%. The “BR (beating rate), % change” value ([1]; 3 µM, 24h) was 16±3%, the “FPD (field-potential duration), % change from baseline” value ([1]; 3 µM, 24h) was -2.7±2.9% and the “FPDc … % change from baseline” value ([1]; 3 µM, 24h) was 2.3±2.9%. The “BR (beating rate), % change” value ([1]; 3 µM, 48h) was 2±2%, the “FPD (field-potential duration), % change from baseline” value ([1]; 3 µM, 48h) was 5.1±3.9% and the “FPDc … % change from baseline” value ([1]; 3 µM, 48h) was 5.7±3.9%. The “BR (beating rate), % change” value ([1]; 10 µM, 2h) was 8±3%, the “FPD (field-potential duration), % change from baseline” value ([1]; 10 µM, 2h) was 0.5±3.7% and the “FPDc … % change from baseline” value ([1]; 10 µM, 2h) was 3±3.1%. The “BR (beating rate), % change” value ([1]; 10 µM, 24h) was 18±6 %, the “FPD (field-potential duration), % change from baseline” value ([1]; 10 µM, 24h) was -3.1±4.9% and the “FPDc … % change from baseline” value ([1]; 10 µM, 24h) was 2.2±3.9%. For the same molecule, the “BR (beating rate), % change” value ([1]; 10 µM, 48h) was 3±4%, the “FPD (field-potential duration), % change from baseline” value ([1]; 10 µM, 48h) was 6.6±2.8% and the “FPDc … % change from baseline” value ([1]; 10 µM, 48h) was 7.4±2.1%. The “BR (beating rate), % change” value ([1]; 10 µM, 72h) was -1±8%, the “FPD (field-potential duration), % change from baseline” value ([1]; 10 µM, 72h) was 9.6±7.3% and the “FPDc … % change from baseline” value ([1]; 10 µM, 72h) was 8.9±4.3%. The “BR (beating rate), % change” value ([1]; 10 µM, 96h) was -19±5 %, the “FPD (field-potential duration), % change from baseline” value ([1]; 10 µM, 96h) was 18.3±5.7% and the “FPDc … % change from baseline” value ([1]; 10 µM, 96h) was 10.4±4.4%. For the same molecule, the “BR (beating rate), % change” value ([1]; 30 µM, 2h) was 5±4%, the “FPD (field-potential duration), % change from baseline” value ([1]; 30 µM, 2h) was -0.1±3.5% and the “FPDc … % change from baseline” value ([1]; 30 µM, 2h) was 1.6±2.8%. For the same molecule, the “BR (beating rate), % change” value ([1]; 30 µM, 24h) was 15±6%, the “FPD (field-potential duration), % change from baseline” value ([1]; 30 µM, 24h) was -4.2±3.4% and the “FPDc … % change from baseline” value ([1]; 30 µM, 24h) was 0.5±2.7%. The “BR (beating rate), % change” value ([1]; 30 µM, 48h) was 1±5%, the “FPD (field-potential duration), % change from baseline” value ([1]; 30 µM, 48h) was 5.6±1.7% and the “FPDc … % change from baseline” value ([1]; 30 µM, 48h) was 6±2.2%. For the same molecule, the “BR (beating rate), % change” value ([1]; 30 µM, 72h) was -3±8%, the “FPD (field-potential duration), % change from baseline” value ([1]; 30 µM, 72h) was 8.8±5.4% and the “FPDc … % change from baseline” value ([1]; 30 µM, 72h) was 7.7±3.8%. The “BR (beating rate), % change” value ([1]; 30 µM, 96h) was -20±4 %, the “FPD (field-potential duration), % change from baseline” value ([1]; 30 µM, 96h) was 16.4±1.3% and the “FPDc … % change from baseline” value ([1]; 30 µM, 96h) was 7.9±2.1%. The “Imp (impedance), % change from baseline” value ([2]; 1 µM, 2h) was 2±4%, the “Imp (impedance), % change from baseline” value ([2]; 1 µM, 24h) was 9±7% and the “Imp (impedance), % change from baseline” value ([2]; 1 µM, 48h) was -2±4%. For the same molecule, the “Imp (impedance), % change from baseline” value ([2]; 1 µM, 72h) was 4±3 %, the “Imp (impedance), % change from baseline” value ([2]; 1 µM, 96h) was 0±8% and the “Imp (impedance), % change from baseline” value ([2]; 3 µM, 72h) was 1±4%. The “Imp (impedance), % change from baseline” value ([2]; 3 µM, 96h) was -2±6%, the “Imp (impedance), % change from baseline” value ([2]; 3 µM, 2h) was 2±3% and the “Imp (impedance), % change from baseline” value ([2]; 3 µM, 24h) was 7±6%. The “Imp (impedance), % change from baseline” value ([2]; 3 µM, 48h) was -3±6%, the “Imp (impedance), % change from baseline” value ([2]; 10 µM, 2h) was 2±3% and the “Imp (impedance), % change from baseline” value ([2]; 10 µM, 24h) was 7±6%. The “Imp (impedance), % change from baseline” value ([2]; 10 µM, 48h) was -2±3%, the “Imp (impedance), % change from baseline” value ([2]; 10 µM, 72h) was 1±4% and the “Imp (impedance), % change from baseline” value ([2]; 10 µM, 96h) was -1±6%. For the same molecule, the “Imp (impedance), % change from baseline” value ([2]; 30 µM, 2h) was 2±3%, the “Imp (impedance), % change from baseline” value ([2]; 30 µM, 24h) was 2±4% and the “Imp (impedance), % change from baseline” value ([2]; 30 µM, 48h) was -1±3%. For the same molecule, the “Imp (impedance), % change from baseline” value ([2]; 30 µM, 72h) was -6±4%, the “Imp (impedance), % change from baseline” value ([2]; 30 µM, 96h) was -4±5% and the “Free Cmax” value [3] was 16.1 µM.
